Measured values: patent US20230382871A1, “CSF1R KINASE INHIBITOR AND USE THEREOF” (SHANGHAI INSTITUTE OF MATERIA MEDICA, CHINESE ACADEMY OF …, priority 2020, published 2023)

Key:
recombinant CSF1R kinase = recombinant CSF1R kinase (Homo sapiens (Human), UniProt P07333); experiment: CSF1R kinase activity ELISA assay; format: biochemical; conditions: poly(Glu, Tyr)4:1 substrate, ATP 5 μM, read-out: IC50, inhibition of CSF1R kinase activity
[1] = test system: human glioma U87MG subcutaneous xenografts; experiment: Human glioma U87MG subcutaneous xenografts in nude mice; format: in vivo, BALB/c nude mice; conditions: for Body Weight (g) D 21 / RTV (mean ± SD) / TV (mm^3, mean ± SD) D 21: D 21; for T/C (%): Day 21
Procedure: BALB/c nude female mice of 3-4 weeks old were used, and were provided by […] […] OF MATERIA MEDICA, CHINESE ACADEMY OF SCIENCES.
Human glioma U87MG cells were subcutaneously inoculated into the right axillary fossa of a nude mouse (5×10^6 cells/mouse). After a xenograft was formed, the tumor was transferred to a nude mouse for 1 passage.
Tumor tissues at the vigorous growth stage were removed and cut into pieces of approximately 1.5 mm^3. The tumor fragments were inoculated subcutaneously into the right axillary fossa of nude mice under aseptic conditions. The diameters of the subcutaneous xenografts in nude mice were measured with a vernier caliper. The animals were randomly grouped after the xenografts reached an average volume of about 90 mm^3. Compound I was administered orally at doses of 40 mg/kg, 20 mg/kg and 10 mg/kg twice a day for 21 consecutive days. An equal volume of a blank preparation was administered orally twice a day for 21 consecutive days. The positive control drug Axitinib was administered orally at a dose of 40 mg/kg group twice a day for 21 consecutive days. An equal volume of water for injection was administered to the animals in the solvent group. Throughout the experiment, the diameters of the xenografts were measured twice a week and the mice were weighed at the same time. The tumor volume (TV) was calculated as TV=½×a×b^2, where “a” and “b” denote the length and width of a tumor, respectively. The relative tumor volume (RTV) was calculated from the measurement results with the calculation formula RTV=Vt/V0, in which V0 is the tumor volume measured upon administration after grouping (i.e., D0) and Vt is the tumor volume from each measurement. The evaluation index of anti-tumor activity is the relative tumor proliferation rate T/C (%), which is calculated as T/C (%)=(TRTV/CRTV)×100%, in which TRTV denotes the RTV from the treatment group and CRTV denotes the RTV from solvent group.

[2] = test system: human colorectal cancer HT-29 subcutaneous xenografts; experiment: Human colorectal cancer HT-29 subcutaneous xenografts in nude mice; format: in vivo, BALB/c nude mice; conditions: for Body Weight (g) D 21 / RTV (mean ± SD) / TV (mm3, mean ± SD) D 21: D 21; for T/C (%): Day 21
Description: BALB/c female nude mice of 6 weeks old were used, and were provided by Shanghai Lingchang Biotechnology Co., Ltd.
Human colorectal cancer HT-29 cells were subcutaneously inoculated into the right axillary fossa of a nude mouse (5×10^6 cells/mouse). After a xenograft was formed, the tumor was transferred to a nude mouse for 1 passage.
Tumor tissues at the vigorous growth stage were removed and cut into pieces of approximately 1.5 mm^3. The tumor fragments were inoculated subcutaneously into the right axillary fossa of nude mice under aseptic conditions. The diameters of the subcutaneous xenografts in nude mice were measured with a vernier caliper. The animals were randomly grouped after the xenografts reached an average volume of about 120 mm^3. Compound I was administered orally at doses of 20 mg/kg, 10 mg/kg and 5 mg/kg twice a day for 21 consecutive days. An equal volume of a blank preparation was administered orally twice a day for 21 consecutive days. The positive control drug Axitinib was administered orally at a dose of 40 mg/kg group twice a day for 21 consecutive days. An equal volume of water for injection was administered to the animals in the solvent group. Throughout the experiment, the diameters of the xenografts were measured twice a week and the mice were weighed at the same time. The tumor volume (TV) was calculated as TV=½×a×b^2, where “a” and “b” denote the length and width of a tumor, respectively. The relative tumor volume (RTV) was calculated from the measurement results with the calculation formula RTV=Vt/V0, in which V0 is the tumor volume measured upon administration after grouping (i.e., D0) and Vt is the tumor volume from each measurement. The evaluation index of anti-tumor activity is the relative tumor proliferation rate T/C (%), which is calculated as T/C (%)=(TRTV/CRTV)×100%, in which TRTV denotes the RTV from the treatment group and CRTV denotes the RTV from solvent group.

[3] = test system: mouse astrocytoma DBT subcutaneous xenografts; experiment: Mouse astrocytoma DBT subcutaneous tumor model, alone or combined with anti-PD-1 antibody; format: in vivo, BALB/c mice; conditions: alone, 5 mg/kg po twice a day, 28 days
Procedure: Mouse astrocytoma DBT cell suspensions were injected subcutaneously into the right axillary fossa of BALB/c mice under aseptic conditions. The diameters of the subcutaneous xenografts in nude mice were measured with a vernier caliper. The animals were randomly grouped after the xenografts reached an average volume of 100 to 200 mm^3. Compound I was administered orally at a dose of 5 mg/kg (alone or in combination with an anti-PD-1 antibody) twice a day for 28 consecutive days. An anti-PD-1 antibody (Bio X Cell, InVivoMAb anti-mouse PD-1 (CD279) (cat. No. BE0146)) was administered intraperitoneally at a dose of 10 mg/kg (alone or in combination with Compound I) once every three days for 28 consecutive days. Throughout the experiment, the diameters of the xenografts were measured twice a week and the mice were weighed at the same time. The tumor volume (TV) was calculated as TV=½×a×b^2 where “a” and “b” denote the length and width of a tumor, respectively. The relative tumor volume (RTV) was calculated from the measurement results with the calculation formula RTV=Vt/V0, in which V0 is the tumor volume measured upon administration after grouping (i.e., D0) and Vt is the tumor volume from each measurement.
For all dose groups, n=9. The experimental data were analyzed for significant differences using the t-test. […]

Sequence of recombinant CSF1R kinase (P07333 20-972): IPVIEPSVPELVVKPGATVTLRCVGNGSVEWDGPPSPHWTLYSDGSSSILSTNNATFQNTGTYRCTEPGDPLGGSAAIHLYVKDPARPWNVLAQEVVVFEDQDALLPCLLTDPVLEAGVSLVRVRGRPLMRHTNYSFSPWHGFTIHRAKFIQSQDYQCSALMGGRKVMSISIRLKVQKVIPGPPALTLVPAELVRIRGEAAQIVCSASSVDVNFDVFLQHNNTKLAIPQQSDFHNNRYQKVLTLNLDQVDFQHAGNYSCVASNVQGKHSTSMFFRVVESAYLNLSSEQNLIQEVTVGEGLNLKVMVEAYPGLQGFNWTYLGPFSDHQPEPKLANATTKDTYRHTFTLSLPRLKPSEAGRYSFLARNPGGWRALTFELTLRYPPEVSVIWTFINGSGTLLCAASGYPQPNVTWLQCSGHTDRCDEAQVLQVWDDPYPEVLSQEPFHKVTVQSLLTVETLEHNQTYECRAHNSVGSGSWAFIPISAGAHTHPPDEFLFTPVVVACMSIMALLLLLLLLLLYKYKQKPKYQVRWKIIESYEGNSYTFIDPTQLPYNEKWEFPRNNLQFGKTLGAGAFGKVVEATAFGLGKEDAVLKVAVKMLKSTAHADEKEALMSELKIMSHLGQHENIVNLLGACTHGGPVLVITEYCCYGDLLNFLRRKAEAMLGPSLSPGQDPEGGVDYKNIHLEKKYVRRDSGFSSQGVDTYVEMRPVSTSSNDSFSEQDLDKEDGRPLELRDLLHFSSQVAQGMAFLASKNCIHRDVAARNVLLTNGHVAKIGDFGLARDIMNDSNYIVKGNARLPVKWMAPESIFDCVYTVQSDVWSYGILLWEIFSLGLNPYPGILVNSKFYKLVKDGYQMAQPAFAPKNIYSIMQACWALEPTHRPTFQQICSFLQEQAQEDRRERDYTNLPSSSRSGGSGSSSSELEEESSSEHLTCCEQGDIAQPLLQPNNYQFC

Structure (SMILES): Cc1cc(NC(=O)c2cccc3cc(-c4cccc5[nH]nc(N)c45)ccc23)ccc1F [Compound I]
- IC50 (recombinant CSF1R kinase): 19.3 ± 3.4 nM
- Body Weight (g) D 0 ([1]; 10 mg/kg bid × 21 po): 15.7 g
- TV (mm^3, mean ± SD) D 0 ([1]; 10 mg/kg bid × 21 po): 87 ± 17 mm^3
- Body Weight (g) D 21 ([1]; 10 mg/kg bid × 21 po): 17.3 g
- RTV (mean ± SD) ([1]; 10 mg/kg bid × 21 po): 3.57 ± 1.06
- TV (mm^3, mean ± SD) D 21 ([1]; 10 mg/kg bid × 21 po): 302 ± 72 mm^3
- T/C (%) ([1]; 10 mg/kg bid × 21 po): 11.91%
- Body Weight (g) D 0 ([1]; 20 mg/kg bid × 21 po): 16.7 g
- TV (mm^3, mean ± SD) D 0 ([1]; 20 mg/kg bid × 21 po): 87 ± 17 mm^3
- Body Weight (g) D 21 ([1]; 20 mg/kg bid × 21 po): 16.9 g
- RTV (mean ± SD) ([1]; 20 mg/kg bid × 21 po): 2.44 ± 1.58
- TV (mm^3, mean ± SD) D 21 ([1]; 20 mg/kg bid × 21 po): 200 ± 100 mm^3
- T/C (%) ([1]; 20 mg/kg bid × 21 po): 8.14%
- Body Weight (g) D 0 ([1]; 40 mg/kg bid × 21 po): 17.0 g
- TV (mm^3, mean ± SD) D 0 ([1]; 40 mg/kg bid × 21 po): 87 ± 15 mm^3
- Body Weight (g) D 21 ([1]; 40 mg/kg bid × 21 po): 17.6 g
- RTV (mean ± SD) ([1]; 40 mg/kg bid × 21 po): 2.93 ± 0.50
- TV (mm^3, mean ± SD) D 21 ([1]; 40 mg/kg bid × 21 po): 251 ± 37 mm^3
- T/C (%) ([1]; 40 mg/kg bid × 21 po): 9.77%
- Body Weight (g) D 0 ([2]; 5 mg/kg bid × 21 po): 19.7 g
- TV (mm3, mean ± SD) D 0 ([2]; 5 mg/kg bid × 21 po): 113 ± 28 mm3
- Body Weight (g) D 21 ([2]; 5 mg/kg bid × 21 po): 18.6 g
- RTV (mean ± SD) ([2]; 5 mg/kg bid × 21 po): 3.76 ± 0.87
- TV (mm3, mean ± SD) D 21 ([2]; 5 mg/kg bid × 21 po): 427 ± 157 mm3
- T/C (%) ([2]; 5 mg/kg bid × 21 po): 42.70%
- Body Weight (g) D 0 ([2]; 10 mg/kg bid × 21 po): 19.8 g
- TV (mm3, mean ± SD) D 0 ([2]; 10 mg/kg bid × 21 po): 120 ± 33 mm3
- Body Weight (g) D 21 ([2]; 10 mg/kg bid × 21 po): 18.1 g
- RTV (mean ± SD) ([2]; 10 mg/kg bid × 21 po): 2.75 ± 1.04
- TV (mm3, mean ± SD) D 21 ([2]; 10 mg/kg bid × 21 po): 336 ± 173 mm3
- T/C (%) ([2]; 10 mg/kg bid × 21 po): 31.27%
- Body Weight (g) D 0 ([2]; 20 mg/kg bid × 21 po): 20.1 g
- TV (mm3, mean ± SD) D 0 ([2]; 20 mg/kg bid × 21 po): 121 ± 35 mm3
- Body Weight (g) D 21 ([2]; 20 mg/kg bid × 21 po): 18.2 g
- RTV (mean ± SD) ([2]; 20 mg/kg bid × 21 po): 1.53 ± 0.25
- TV (mm3, mean ± SD) D 21 ([2]; 20 mg/kg bid × 21 po): 188 ± 69 mm3
- T/C (%) ([2]; 20 mg/kg bid × 21 po): 17.38%
- in vivo growth of DBT tumors [3]: no significant inhibitory activity
